Tests used:
Rattus norvegicus [1] = species: Rattus norvegicus; experiment: Displacement of [35S]TBPS from GABAA receptor in Wistar rat cerebral cortex membranes after 3 hrs by scintillation counting method; details: Membrane
Rattus norvegicus [2] = species: Rattus norvegicus; experiment: Displacement of [35S]TBPS from GABAA receptor in Wistar rat cerebral cortex membranes at 10 uM after 3 hrs by scintillation counting method; details: Membrane
Mus musculus [3] = experiment: Anesthetic activity in iv dosed ICR mouse assessed as onset time for loss of righting reflex administered 7 to 8 doses at 10 secs for each dose; type: functional
Mus musculus [4] = experiment: Anesthetic activity in iv dosed ICR mouse assessed as anesthetic duration time administered 7 to 8 doses at 10 secs for each dose; type: functional
Mus musculus [5] = experiment: Anesthetic activity in iv dosed ICR mouse assessed as recovery time of righting reflex by measuring the ability to grip and climb a steel frame and ambulated normally administered 7 to 8 doses at 10 secs for each dose; type: functional
Mus musculus [6] = experiment: Anesthetic activity in iv dosed ICR mouse assessed as dose required to produce 10 min of anesthesia administered 7 to 8 doses at 10 secs for each dose; type: functional
Mus musculus [7] = experiment: Anesthetic activity in mouse model assessed as loss of righting reflex; type: functional
[8] = Therapeutic index, ratio of LD50 for toxicity in mouse to ED50 for anesthetic effect in mouse
Rattus norvegicus [9] = species: Rattus norvegicus; experiment: Displacement of [35S]TBPS from GABAA receptor in Wistar rat cerebral cortex membranes at 1 uM after 3 hrs by scintillation counting method; details: Membrane
[10] = Toxicity in iv dosed ICR mouse administered 7 to 8 doses at 10 secs for each dose; type: organism-based; details: in vivo
Mus musculus [11] = experiment: Anesthetic activity in iv dosed ICR mouse assessed as loss of righting reflex administered 7 to 8 doses at 10 secs for each dose; type: functional
[12] = Volume of distribution at steady state in Sprague-Dawley rat at 1 mg/kg, iv by LC-MS/MS analysis; type: ADME, organism-based; details: in vivo, read-out: Vdss
Rattus norvegicus [13] = experiment: Cmax in Sprague-Dawley rat at 1 mg/kg, iv by LC-MS/MS analysis; type: ADME, organism-based; design: dose 1 mg/kg, route intravenous; details: in vivo
Rattus norvegicus [14] = species: Rattus norvegicus; details: in vivo, iv, 1 mg/kg
Rattus norvegicus [15] = experiment: Half life in Sprague-Dawley rat at 1 mg/kg, iv by LC-MS/MS analysis; type: ADME, organism-based; details: in vivo
[16] = Clearance in Sprague-Dawley rat at 1 mg/kg, iv by LC-MS/MS analysis; type: ADME, organism-based; details: in vivo
[17] = Toxicity in mouse; type: organism-based; details: in vivo

| SMILES | inhibition (Rattus norvegicus [1]) | inhibition (Rattus norvegicus [2]) [%] | Time (Mus musculus [3]) [s] | Time (Mus musculus [4]) [s] | Time (Mus musculus [5]) [s] | Activity (Mus musculus [6]) [mg/kg] | ED50 (Mus musculus [7]) [mg/kg] | Ratio LD50/ED50 [8] | inhibition (Rattus norvegicus [9]) [%] | LD50 at 10 s [10] [mg/kg] | ED50 (Mus musculus [11]) [mg/kg] | Vd [12] [L/kg] | Cmax (Rattus norvegicus [13]) [ng/mL] | AUCt (Rattus norvegicus [14]) [ng·h/mL] | t1/2 (Rattus norvegicus [15]) [min] | clearance [16] [mL/min/kg] | LD50 [17] [mg/kg] |
| --- | --- | --- | --- | --- | --- | --- | --- | --- | --- | --- | --- | --- | --- | --- | --- | --- | --- |
| CC(C)c1cccc(C(C)C2CC2)c1O (racemic) | Dose-dependent effect | 3 | <10 | 518.5 | 78 | 10 |  |  |  |  |  |  |  |  |  |  |  |
| C[C@H](c1cccc([C@@H](C)C2CC2)c1OCOP(=O)([O-])[O-])C1CC1.[Na+].[Na+] |  |  |  |  |  |  | 94.7 | 2.9 |  |  |  |  |  |  |  |  |  |
| CC[C@H](C)c1cccc([C@H](C)C2CC2)c1O | Dose-dependent effect | 34 | <10 | 545 | 363.67 | 20 |  |  | -9 | 65.4 |  |  |  |  |  |  |  |
| CCc1cccc(C(C)C2CC2)c1O (racemic) |  |  | <10 | 409.57 | 226.57 |  |  |  |  | 57.1 | 7.7 |  |  |  |  |  |  |
| CC(C)c1cccc(C(C)C)c1O [PROPOFOL] | Dose-dependent effect | 10 | <10 | 303.2 | 50 | 25 |  |  |  |  |  | 5.23 | 384 | 76.9 |  |  |  |
| C[C@@H](c1cccc([C@H](C)C2CC2)c1O)C1CC1 | Dose-dependent effect | 96 | <10 | 318.43 | 61.67 | 5 |  |  | 64 |  |  | 1.92 | 713 | 170 | 31 | 95 |  |
| CC(c1cccc(C(C)C2CC2)c1O)C1CC1 (racemic) | Dose-dependent effect | 91 | <10 | 563.63 | 233.83 |  |  |  | 13 | > 15 |  |  |  |  |  |  |  |
| CC(c1cccc(C2CC2)c1O)C1CC1 (racemic) |  |  | <10 | 500.67 | 193.63 |  |  |  |  | 80 | 14.6 |  |  |  |  |  |  |
| CC[C@@H](C)c1cccc([C@H](C)C2CC2)c1O | Dose-dependent effect | 87 | <10 | 471.88 | 391.29 | 7.5 |  |  | 23 | 14.3 | 2 | 3.23 | 575 | 78.1 | 22 | 208 |  |
| CC[C@H](C)c1cccc([C@@H](C)C2CC2)c1O | Dose-dependent effect | 47 | <10 | 643.4 | 224 | 10 |  |  | 5 |  |  |  |  |  |  |  |  |
| CC[C@@H](C)c1cccc([C@@H](C)C2CC2)c1O | Dose-dependent effect | 63 | <10 | 418 | 192.33 | 4 |  |  | -1 | 8.3 | 1.3 |  |  |  |  |  |  |
| COc1cccc(C(C)C2CC2)c1O (racemic) |  |  | <10 | 364.14 | 79 |  |  |  |  |  | 7.4 |  |  |  |  |  |  |
| CC(c1cccc(C(C2CC2)C2CC2)c1O)C1CC1 (racemic) |  |  | <10 | 761.33 | 326.5 | 20 |  |  |  | 98.2 | 9.8 |  |  |  |  |  |  |
| CC(C)c1cccc(C(C2CC2)C2CC2)c1O |  |  | <10 | 2616.4 | 220.17 | 50 |  |  |  | > 100 |  |  |  |  |  |  |  |
| CC(C)c1cccc([C@H](C)C2CC2)c1O [CIPEPOFOL] | Dose-dependent effect | 85 | 21.86 | 313.43 | 64.8 | 4.8 |  |  | 34 |  |  | 2.02 | 834 | 164 | 28 | 100 |  |
| CC(C)c1cccc(C(C)C2CCC2)c1O (racemic) |  |  | 43.5 | 364 | 46 |  |  |  |  | 40 |  |  |  |  |  |  |  |
| C[C@H](c1cccc([C@H](C)C2CC2)c1OCOP(=O)([O-])[O-])C1CC1.[Na+].[Na+] |  |  |  |  |  |  | 35.8 | 4 |  |  |  |  |  |  |  |  |  |

| SMILES | inhibition (Rattus norvegicus [1]) | inhibition (Rattus norvegicus [2]) [%] | Time (Mus musculus [3]) [s] | Time (Mus musculus [4]) [s] | Time (Mus musculus [5]) [s] | Activity (Mus musculus [6]) [mg/kg] | ED50 (Mus musculus [7]) [mg/kg] | Ratio LD50/ED50 [8] | inhibition (Rattus norvegicus [9]) [%] | LD50 at 10 s [10] [mg/kg] | ED50 (Mus musculus [11]) [mg/kg] | Vd [12] [L/kg] | Cmax (Rattus norvegicus [13]) [ng/mL] | AUCt (Rattus norvegicus [14]) [ng·h/mL] | t1/2 (Rattus norvegicus [15]) [min] | clearance [16] [mL/min/kg] | LD50 [17] [mg/kg] |
| --- | --- | --- | --- | --- | --- | --- | --- | --- | --- | --- | --- | --- | --- | --- | --- | --- | --- |
| CCC(c1cccc(C(C)C2CC2)c1O)C1CC1 (racemic) |  |  | 7.5 | 670.13 | 205.8 | 20 |  |  |  | 74.7 | 9 |  |  |  |  |  |  |
| CC(C)c1cccc([C@H](C)C2CCC2)c1O |  |  | <10 | 443.5 | 89.11 |  |  |  |  |  |  |  |  |  |  |  |  |
| CC(C)c1cccc(C(C)C2CCCC2)c1O (racemic) |  |  | 5 | 737.33 | 441.6 | 40 |  |  |  | 115 | 19.9 |  |  |  |  |  |  |
| C[C@H](c1cccc([C@H](C)C2CC2)c1O)C1CC1 | Dose-dependent effect | 78 | <10 | 492.17 | 24.5 | 20 |  |  | -5 | 43.6 | 5.9 |  |  |  |  |  |  |
| CC(c1ccccc1O)C1CC1 (racemic) |  |  | <10 | 598 | 329.6 | 30 |  |  |  | 64.8 | 14 |  |  |  |  |  |  |
| CC[C@H](C)c1cccc([C@H](C)C2CC2)c1OCOP(=O)([O-])[O-].[Na+].[Na+] |  |  |  |  |  |  | 24.3 | 3.8 |  |  |  |  |  |  |  |  | 91.8 |
| CCC(c1cccc(C(C)C)c1O)C1CC1 (racemic) |  |  | 13.6 | 523.57 | 50.38 |  |  |  |  | 53.2 | 6.2 |  |  |  |  |  |  |
| CCC(C)c1cccc(C(C)C2CC2)c1O (racemic) | Dose-dependent effect | 74 | <10 | 418.14 | 130.71 | 20 |  |  | -3 |  |  |  |  |  |  |  |  |
| CC[C@@H](C)c1cccc([C@H](C)C2CC2)c1OCOP(=O)([O-])[O-].[Na+].[Na+] |  |  |  |  |  |  | 15.9 | 4 |  |  |  |  |  |  |  |  | 63.7 |
| CC(C)c1cccc([C@@H](C)C2CC2)c1O | Dose-dependent effect | 9 | 5.71 | 344 | 168.33 | 30 |  |  | 3 | 50 | 7.9 |  |  |  |  |  |  |
| C[C@H](c1cccc([C@@H](C)C2CC2)c1O)C1CC1 | Dose-dependent effect | 35 | 7 | 567.33 | 150.8 | 40 |  |  |  | 149 | 19.5 |  |  |  |  |  |  |
| CC(C)c1cccc([C@@H](C)C2CCC2)c1O |  |  | 15.63 | 450.43 | 191.8 | 100 |  |  |  | 107 |  |  |  |  |  |  |  |
| CC[C@@H](C)c1cccc([C@H](C)CC)c1O | Dose-dependent effect | 29 | 18 | 459.83 | 39.83 | 10 |  |  | 0 | 23.8 | 2.69 |  |  |  |  |  |  |
| CC(C)c1cccc([C@@H](C)C2CC2)c1OCOP(=O)([O-])[O-].[Na+].[Na+] |  |  |  |  |  |  | 82.7 | 4.5 |  |  |  |  |  |  |  |  |  |
| CC(c1cccc(C2(C)CC2)c1O)C1CC1 (racemic) |  |  | 9.5 | 365.75 | 306.13 | 45 |  |  |  | 40 |  |  |  |  |  |  |  |
| Cc1cccc(C(C)C2CC2)c1O (racemic) |  |  | <10 | 198.33 | 122 |  |  |  |  | 54.9 | 7.4 |  |  |  |  |  |  |

— ChEMBL document CHEMBL4043087 (J Med Chem, 2017)
